Source: ChEMBL document CHEMBL1129089, “N-(substituted-phenyl) piperazines: antagonists with high binding and functional selectivity for dopamine D4 receptors” (Bioorg Med Chem Lett, 1996)

Legend:
D(2) dopamine receptor = D(2) dopamine receptor (Homo sapiens, UniProt P14416); test: Binding affinity at cloned human Dopamine receptor D2 expressed in CHO cells, using [125I]iodosulpiride as radioligand; format: cell-based
D(4) dopamine receptor = biological target: T1, D(4) dopamine receptor (Homo sapiens, UniProt P21917); test: Binding affinity at cloned human Dopamine receptor D4 expressed in HEK 293 cells, using [3H]nemonapride as radioligand; format: cell-based, HEK293
T1 sequence (P21917 whole entry): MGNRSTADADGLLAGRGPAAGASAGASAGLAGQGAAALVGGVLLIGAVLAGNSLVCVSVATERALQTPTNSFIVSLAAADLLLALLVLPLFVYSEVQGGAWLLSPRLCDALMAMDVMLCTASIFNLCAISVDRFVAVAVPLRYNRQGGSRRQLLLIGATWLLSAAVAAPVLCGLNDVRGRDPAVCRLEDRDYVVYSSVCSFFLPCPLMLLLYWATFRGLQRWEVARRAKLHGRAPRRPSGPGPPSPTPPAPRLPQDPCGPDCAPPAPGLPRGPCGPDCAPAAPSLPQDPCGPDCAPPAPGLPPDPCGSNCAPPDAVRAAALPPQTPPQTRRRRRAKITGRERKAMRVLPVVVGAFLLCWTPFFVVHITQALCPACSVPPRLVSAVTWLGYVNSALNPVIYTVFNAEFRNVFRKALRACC

[1] = biological target: Dopamine receptors; D2 & D4 (Homo sapiens) (UniProt P14416+P21917); test: Selectivity of D2 receptor over D4 receptor; format: protein assay
Sequence of Dopamine receptors; D2 & D4 (Homo sapiens) (P14416 whole entry, looked up, one chain of several): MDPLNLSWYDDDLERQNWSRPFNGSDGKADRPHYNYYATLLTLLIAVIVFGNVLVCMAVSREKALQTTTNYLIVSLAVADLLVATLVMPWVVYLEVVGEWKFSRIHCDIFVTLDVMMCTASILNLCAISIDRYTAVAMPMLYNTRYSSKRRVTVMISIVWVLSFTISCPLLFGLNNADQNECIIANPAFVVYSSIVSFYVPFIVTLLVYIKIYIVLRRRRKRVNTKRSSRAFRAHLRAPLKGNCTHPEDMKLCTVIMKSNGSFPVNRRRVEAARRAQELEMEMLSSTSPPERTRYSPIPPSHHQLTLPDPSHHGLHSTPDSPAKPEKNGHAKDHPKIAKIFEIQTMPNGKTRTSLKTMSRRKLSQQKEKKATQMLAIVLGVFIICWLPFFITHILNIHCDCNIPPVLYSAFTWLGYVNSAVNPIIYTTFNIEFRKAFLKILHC

Sequence of D(2) dopamine receptor (P14416 whole entry): as the sequence (P14416 whole entry, looked up, one chain of several) above

COc1ccccc1N1CCN(CCCCNC(=O)C(C)(C)C)CC1
Ki (D(2) dopamine receptor): 0.02 µM | Ki (D(4) dopamine receptor): 0.0126 µM | Selectivity [1]: 2

CCC(C)(C)C(=O)NCCCCN1CCN(c2ccc(Cl)cc2)CC1
Ki (D(2) dopamine receptor): 1 µM | Ki (D(4) dopamine receptor): 0.0158 µM | Selectivity [1]: 63

CC1(C(=O)NCCN2CCN(c3ccc(Cl)cc3)CC2)CCCCC1
Ki (D(2) dopamine receptor): 0.794 µM | Ki (D(4) dopamine receptor): 0.00794 µM | Selectivity [1]: 100

O=C(NCCCCN1CCN(c2ccc(Cl)cc2)CC1)C12CC3CC(CC(C3)C1)C2
Ki (D(2) dopamine receptor): 0.631 µM | Ki (D(4) dopamine receptor): 0.02 µM | Selectivity [1]: 30

CC(C)(C)C(=O)NCCCCN1CCN2c3ccc(Cl)cc3CCC2C1 (stereo not drawn)
Ki (D(2) dopamine receptor): 0.398 µM | Ki (D(4) dopamine receptor): 0.0631 µM

O=C(NCCCCN1CCN(c2ccc(Cl)cc2)CC1)c1ccccc1
Ki (D(2) dopamine receptor): 0.398 µM | Ki (D(4) dopamine receptor): 0.158 µM | Selectivity [1]: 3

CC(C)(C)C(=O)NCCCCCN1CCN(c2ccc(Cl)cc2)CC1
Ki (D(2) dopamine receptor): 0.398 µM | Ki (D(4) dopamine receptor): 0.126 µM | Selectivity [1]: 3

CC(C)(C)C(=O)NCCCCN1CCN(c2ccc(C(F)(F)F)cc2)CC1
Ki (D(2) dopamine receptor): 3.98 µM | Ki (D(4) dopamine receptor): 0.0501 µM | Selectivity [1]: 80

CC(C)(C)C(=O)NCCCCN1CCN(c2ccccc2)CC1
Ki (D(2) dopamine receptor): 0.794 µM | Ki (D(4) dopamine receptor): 0.316 µM | Selectivity [1]: 3

CC(C)(C)C(=O)NCCN1CCN(c2ccc(Cl)cc2)CC1
Ki (D(2) dopamine receptor): 2.51 µM | Ki (D(4) dopamine receptor): 0.0251 µM | Selectivity [1]: 100

CC(C)(C)C(=O)NCCCCN1CCN(c2ccc(Br)cc2)CC1
Ki (D(2) dopamine receptor): 1.58 µM | Ki (D(4) dopamine receptor): 0.0316 µM | Selectivity [1]: 50

COc1cc(Cl)ccc1N1CCN(CCCCNC(=O)C(C)(C)C)CC1
Ki (D(2) dopamine receptor): 0.158 µM | Ki (D(4) dopamine receptor): 0.0158 µM | Selectivity [1]: 10

CCC(C)(C)C(=O)NCCN1CCN(c2ccc(Cl)cc2)CC1
Ki (D(4) dopamine receptor): 0.00794 µM | Selectivity [1]: 320

COc1ccc(N2CCN(CCCCNC(=O)C(C)(C)C)CC2)cc1
Ki (D(2) dopamine receptor): > 10 µM | Ki (D(4) dopamine receptor): 0.316 µM | Selectivity [1]: > 30

CC(C)(C)C(=O)NCCCCN1CCN(c2ccc(F)cc2)CC1
Ki (D(2) dopamine receptor): 2 µM | Ki (D(4) dopamine receptor): 0.126 µM | Selectivity [1]: 15

O=C(NCCN1CCN(c2ccc(Cl)cc2)CC1)C12CC3CC(CC(C3)C1)C2
Ki (D(2) dopamine receptor): 0.398 µM | Ki (D(4) dopamine receptor): 0.00501 µM | Selectivity [1]: 80

CC1(C(=O)NCCCCN2CCN(c3ccc(Cl)cc3)CC2)CCCCC1
Ki (D(2) dopamine receptor): 1 µM | Ki (D(4) dopamine receptor): 0.01 µM | Selectivity [1]: 100

CCCC(C)(C)C(=O)NCCN1CCN(c2ccc(Cl)cc2)CC1
Ki (D(2) dopamine receptor): 2.51 µM | Ki (D(4) dopamine receptor): 0.00794 µM | Selectivity [1]: 320

CC1CN(CCCCNC(=O)C(C)(C)C)CCN1c1ccc(Cl)cc1 (stereo not drawn)
Ki (D(2) dopamine receptor): 1.58 µM | Ki (D(4) dopamine receptor): 0.0631 µM

CC(C)(C)C(=O)NCCCN1CCN(c2ccc(Cl)cc2)CC1
Ki (D(2) dopamine receptor): > 10 µM | Ki (D(4) dopamine receptor): 0.2 µM | Selectivity [1]: > 50

CC(C)(C)C(=O)NCCCCN1CCN(c2ccc(Cl)cc2)CC1
Ki (D(2) dopamine receptor): 2.51 µM | Ki (D(4) dopamine receptor): 0.0126 µM | Selectivity [1]: 200

CCCCC(C)(C)C(=O)NCCN1CCN(c2ccc(Cl)cc2)CC1
Ki (D(2) dopamine receptor): 1.58 µM | Ki (D(4) dopamine receptor): 0.0316 µM | Selectivity [1]: 50

CC(C)(C)C(=O)NCCCCN1CCN(c2cccc(Cl)c2)CC1
Ki (D(2) dopamine receptor): 0.251 µM | Ki (D(4) dopamine receptor): 0.1 µM | Selectivity [1]: 3

CCCC(C)(C)C(=O)NCCCCN1CCN(c2ccc(Cl)cc2)CC1
Ki (D(2) dopamine receptor): 1.58 µM | Ki (D(4) dopamine receptor): 0.0126 µM | Selectivity [1]: 125

CC(C)C(=O)NCCCCN1CCN(c2ccc(Cl)cc2)CC1
Ki (D(2) dopamine receptor): 2 µM | Ki (D(4) dopamine receptor): 0.126 µM | Selectivity [1]: 16

CC(=O)NCCCCN1CCN(c2ccc(Cl)cc2)CC1
Ki (D(2) dopamine receptor): 1.58 µM | Ki (D(4) dopamine receptor): 1.26 µM | Selectivity [1]: 1

CC(C)(C)C(=O)NCCCCN1CCN(c2ccccc2Cl)CC1
Ki (D(2) dopamine receptor): 0.0631 µM | Ki (D(4) dopamine receptor): 0.0794 µM | Selectivity [1]: 1
